Results on 13 molecules are retold here after US8658791B2, “2-substituted-6-amino-5-alkyl, alkenyl or alkynyl-4-pyrimidinecarboxylic acids and 6-substituted-4-amino-3-alkyl, alkenyl or alkynyl picolinic acids and their use as herbicides” (Dow AgroSciences, LLC, priority 2007, dated 2014).

Holding throughout (type): in vivo
One experiment has as its system rice (Oryza sativa). Briefly: General postemergence herbicidal activity, ORYSA. The settings on record: Oryza sativa, post-emergence, 336 h, postemergence spray, visual score after 14 days, 0 = no injury, 100 = complete kill, read-out: Post-emergent Weed Control ORYSA; for plant injury at 140 g/ha: 140 g ai/ha; for plant injury at 280 g/ha: 280 g ai/ha. On the procedure: (§1) Seeds or nutlets of the desired test plant species were planted in Sun Gro MetroMix® 306 planting mixture, which typically has a pH of 6.0 to 6.8 and an organic matter content of about 30 percent, in plastic pots with a surface area of 103 square centimeters. When required to ensure good germination and healthy plants, a fungicide treatment and/or other chemical or physical treatment was applied. The plants were grown for 7-21 days in a greenhouse with an approximate 15 hour photoperiod which was maintained at about 23-29° C. during the day and 22-28° C. during the night. Nutrients and water were added on a regular basis and supplemental lighting was provided with overhead metal halide 1000-Watt lamps as necessary. The plants were employed for testing when they reached the first or second true leaf stage.
(§2) A weighed amount, determined by the highest rate to be tested, of each test compound was placed in a 25 mL glass vial and was dissolved in 4 mL of a 97:3 v/v (volume/volume) mixture of acetone and dimethyl sulfoxide (DMSO) to obtain concentrated stock solutions. […] The concentrated stock solutions obtained were diluted with 20 mL of an aqueous mixture containing acetone, water, isopropyl alcohol, DMSO, Atplus 411F crop oil concentrate, and Triton® X-155 surfactant in a 48.5:39:10:1.5:1.0:0.02 v/v ratio to obtain spray solutions containing the highest application rates. Additional application rates were obtained by serial dilution of 12 mL of the high rate solution into a solution containing 2 mL of 97:3 v/v (volume/volume) mixture of acetone and dimethyl sulfoxide (DMSO) and 10 mL of an aqueous mixture containing acetone, water, isopropyl alcohol, DMSO, Atplus 411F crop oil concentrate, and Triton X-155 surfactant in a 48.5:39:10:1.5:1.0:0.02 v/v ratio to obtain 1/2X, 1/4X, 1/8X and 1/16X rates of the high rate. Compound requirements are based upon a 12 mL application volume at a rate of 187 L/ha. Formulated compounds were applied to the plant material with an overhead Mandel track sprayer equipped with a 8002E nozzles calibrated to deliver 187 L/ha over an application area of 0.503 square meters at a spray height of 18 inches (43 cm) above the average plant canopy height. Control plants were sprayed in the same manner with the solvent blank.
(§3) The treated plants and control plants were placed in a greenhouse as described above and watered by sub-irrigation to prevent wash-off of the test compounds. After 14 days, the condition of the test plants as compared with that of the untreated plants was determined visually and scored on a scale of 0 to 100 percent where 0 corresponds to no injury and 100 corresponds to complete kill.

Experiment [1] deals with velvetleaf (Abutilon theophrasti). Briefly: General postemergence herbicidal activity, ABUTH. The settings on record: Abutilon theophrasti, post-emergence, 336 h, postemergence spray, visual score after 14 days, 0 = no injury, 100 = complete kill, read-out: Post-emergent Weed Control ABUTH; for pest or weed control at 140 g/ha: 140 g ai/ha; for pest or weed control at 280 g/ha: 280 g ai/ha. As to the method:
as §1, §2, §3

Experiment [2] deals with barnyardgrass (Echinochloa crus-galli). Briefly: General postemergence herbicidal activity, ECHCG. To be noted: Echinochloa crus-galli, post-emergence, 336 h, postemergence spray, visual score after 14 days, 0 = no injury, 100 = complete kill, read-out: Post-emergent Weed Control ECHCG; for pest or weed control at 140 g/ha: 140 g ai/ha; for pest or weed control at 280 g/ha: 280 g ai/ha. On the procedure: as §1, §2, §3

Experiment [3] concerns lambsquarter (Chenopodium album). Briefly: General postemergence herbicidal activity, CHEAL. The settings on record: Chenopodium album, post-emergence, 336 h, postemergence spray, visual score after 14 days, 0 = no injury, 100 = complete kill, read-out: Post-emergent Weed Control CHEAL; for pest or weed control at 140 g/ha: 140 g ai/ha; for pest or weed control at 280 g/ha: 280 g ai/ha. On the procedure:
as §1, §2, §3

The subject of experiment [4] is wild poinsettia (Euphorbia heterophylla). As to the kind of experiment: General postemergence herbicidal activity, EPHHL. The settings on record: Euphorbia heterophylla, post-emergence, 336 h, postemergence spray, visual score after 14 days, 0 = no injury, 100 = complete kill, read-out: Post-emergent Weed Control EPHHL; for pest or weed control at 140 g/ha: 140 g ai/ha; for pest or weed control at 280 g/ha: 280 g ai/ha. As to the method:
as §1, §2, §3

Regarding `C=C(F)c1c(N)nc(-c2ccc(Cl)c(OC)c2F)nc1C(=O)OC` [Compound 9, 6-Amino-2-(4-chloro-2-fluoro-3-methoxyphenyl)-5-(1-fluorovinyl) pyrimidine-4-carboxylic acid methyl ester], in the experiment on rice (Oryza sativa), the plant injury at 140 g/ha amounted to 0%. The pest or weed control at 140 g/ha in experiment [1] amounted to 90%; in experiment [2], 90%; in experiment [3], 95%; in experiment [4] it was 100%.

As for `C=C(OCC)c1c(N)nc(-c2ccc(Cl)c(OC)c2F)nc1C(=O)OC` [Compound 10, 6-Amino-2-(4-chloro-2-fluoro-3-methoxyphenyl)-5-(1-ethoxyvinyl)pyrimidine-4-carboxylic acid methyl ester], the plant injury at 280 g/ha in the experiment on rice (Oryza sativa) amounted to 0%. Moreover, the pest or weed control at 280 g/ha in experiment [1] was 50%; in experiment [2] it was 0%; in experiment [3], 40%; in experiment [4], 75%.

On to `C=Cc1c(N)nc(-c2cc(F)c(Cl)cc2F)nc1C(=O)OC` [Compound 12, 6-Amino-2-(4-chloro-2,5-difluorophenyl)-5-vinylpyrimidine-4-carboxylic acid methyl ester], for which the plant injury at 140 g/ha in the experiment on rice (Oryza sativa) was determined as 0%. The pest or weed control at 140 g/ha in experiment [1] came to 100%; in experiment [2], 50%; in experiment [3], 100%; in experiment [4], 50%.

For the molecule `C=Cc1c(N)nc(-c2cc(C)c(Cl)cc2F)nc1C(=O)OC` [Compound 13, 6-Amino-2-(4-chloro-2-fluoro-5-methylphenyl)-5-vinylpyrimidine-4-carboxylic acid methyl ester], in the experiment on rice (Oryza sativa), the plant injury at 280 g/ha was found to be 0%. The pest or weed control at 280 g/ha is 90% in experiment [1], 0% in experiment [2], 100% in experiment [3] and 60% in experiment [4].

For the molecule `C=Cc1c(N)nc(-c2ccc(Cl)c(C(F)F)c2F)nc1C(=O)OC` [Compound 15, 6-Amino-2-(4-chloro-3-difluoromethyl-2-fluorophenyl)-5-vinylpyrimidine-4-carboxylic acid methyl ester], the plant injury at 140 g/ha with rice (Oryza sativa) was 5%. The pest or weed control at 140 g/ha in experiment [1], in experiment [2], in experiment [3] and in experiment [4] was 100% in each case.

In the case of `C=Cc1c(N)nc(-c2ccc(Cl)c(F)c2)nc1C(=O)OC` [Compound 16, 6-Amino-2-(4-chloro-3-fluorophenyl)-5-vinylpyrimidine-4-carboxylic acid methyl ester], the plant injury at 140 g/ha in the experiment with rice (Oryza sativa) is 0%. The pest or weed control at 140 g/ha was 100% in experiment [1], 0% in experiment [2], 95% in experiment [3] and 80% in experiment [4].

As to `C=Cc1c(N)nc(-c2ccc(Cl)c(OC(F)F)c2F)nc1C(=O)OC` [Compound 17, 6-Amino-2-(4-chloro-3-difluoromethoxy-2-fluorophenyl)-5-vinylpyrimidine-4-carboxylic acid methyl ester], the plant injury at 280 g/ha in the experiment on rice (Oryza sativa) amounted to 0%. For the same molecule, the pest or weed control at 280 g/ha in experiment [1], in experiment [2], in experiment [3] and in experiment [4] was 100% throughout.

As to `C=Cc1c(N)nc(-c2ccc(Cl)c(OC)c2Cl)nc1C(=O)OC` [Compound 18, 6-Amino-2-(2,4-dichloro-3-methoxyphenyl)-5-vinylpyrimidine-4-carboxylic acid methyl ester], the plant injury at 140 g/ha in the experiment on rice (Oryza sativa) amounted to 0%. Also, the pest or weed control at 140 g/ha in experiment [1] was 100%; in experiment [2], 90%; in experiment [3], 100%; in experiment [4] it was 40%.

For `C=Cc1c(N)nc(-c2ccc(Cl)c(N(C)C)c2F)nc1C(=O)OC` [Compound 19, 6-Amino-2-(4-chloro-3-dimethylamino-2-fluorophenyl)-5-vinylpyrimidine-4-carboxylic acid methyl ester], the plant injury at 280 g/ha in the experiment on rice (Oryza sativa) came out at 85%. For the same molecule, the pest or weed control at 280 g/ha was found to be 100% in experiment [1], 85% in experiment [2], 100% in experiment [3] and 100% in experiment [4].

Consider `C=Cc1c(N)nc(-c2ccc(Cl)c(C(C)F)c2)nc1C(=O)OC` (centres unmarked) [Compound 20, 6-Amino-2-[4-chloro-3-(1-fluoroethyl)phenyl]-5-vinylpyrimidine-4-carboxylic acid methyl ester], for which the plant injury at 280 g/ha in the experiment with rice (Oryza sativa) is 0%. The pest or weed control at 280 g/ha was found to be 85% in experiment [1], 70% in experiment [2], 100% in experiment [3] and 100% in experiment [4].

In the case of `C=Cc1c(N)nc(-c2ccc(Cl)c(F)c2)nc1C(=O)O` [Compound 49, 6-Amino-2-(4-chloro-3-fluorophenyl)-5-vinylpyrimidine-4-carboxylic acid], the plant injury at 140 g/ha with rice (Oryza sativa) was 0%. Further, the pest or weed control at 140 g/ha stood at 65% in experiment [1], 100% in experiment [3] and 100% in experiment [4].

As for `C=Cc1c(C(=O)O)nc(-c2ccc(Cl)cc2)c(F)c1N` [Compound 61, 4-Amino-6-(4-chlorophenyl)-5-fluoro-3-vinylpyridine-2-carboxylic acid], the plant injury at 140 g/ha with rice (Oryza sativa) amounted to 50%. The pest or weed control at 140 g/ha in experiment [1] worked out at 100%; in experiment [3], 100%; in experiment [4] it was 95%.

As to `C=Cc1c(N)nc(-c2ccc(Cl)c(OC)c2F)nc1C(=O)OCCCC` [Compound 62, 6-Amino-2-(4-chloro-2-fluoro-3-methoxyphenyl)-5-vinyl-pyrimidine-4-carboxylic acid butyl ester], the plant injury at 140 g/ha in the experiment on rice (Oryza sativa) stood at 25%. For the same molecule, the pest or weed control at 140 g/ha in experiment [1], in experiment [3] and in experiment [4] was 100% throughout.
